Values quoted from earlier work, collected in patent publication US20120046172A1, “METHODS FOR USE OF TRIALKYLBENZYLAMMONIUM HALIDE COMPOSITIONS AS NON-SELECTIVE TERRESTRIAL PLANT HERBICIDES” (priority 2010, published 2012).

Columns and labels:
wheat plants = conditions: compositions with ADBAC concentrations in the range of 0.1 to 1%; DD215228
bean plants = conditions: compositions with ADBAC concentrations in the range of 0.1 to 1%; DD215228

alkyldimethylbenzyl ammonium chloride [ADBAC]
Effect on wheat plants (wheat plants): plant stunting
Effect on bean plants (bean plants): leaf desiccation and defoliation
